The nature of series [1]: Subchronic toxicity in ICR mice. The series is classed as in vivo. An excerpt: The maximally tolerated dose (MTD) in the mouse was identified. […] Body weight changes and morbidity in treated animals were used as a direct measure of toxicity.
The next series deals with Tubulin proteins. Nature of the series: Tubulin polymerization in vitro (absorbance 340 nm). The series is classed as biochemical. The following applies: 20 μM, 37° C., 30 minutes. As for the experimental part: Cell viability (LNCaP, PC-3 prostate, DU145, PPC-1, and TSU-Pr1 prostate cancer cell lines, HT-29 colon cancer cell line, and MCF-7 breast cancer cell line) was quantitated using the sulforhodamine B (SRB) assay after 96 h coincubation with different concentrations of compound in 96-well plates. Cell viability of leukemia cells (K562 and doxorubicin-resistant K562/Dox) was quantitated by MTT assay after 96 h coincubation with different concentrations of compound in 96-well plates. Drug-induced apoptosis was determined by anti-histone ELISA assay and DNA laddering. Cell cycle progression was assessed by propidium iodide staining and fluorescence-activated cell sorting (FACS) analysis. In vitro tubulin polymerization assay was determined by CytoDYNAMIX ScreenTM3 (CDS-03) kits according to the manufacturer's instructions. […]
Tubulin proteins (greater than 99% purity) were suspended (300 μg per sample) with 100 μl G-PEM buffer composed of 80 mM PIPES (piperazine-N,N′-bis(2-ethanesulfonic acid)), 2 mM MgCl2, 0.5 mM egtazic acid and 1.0 mM guanosine triphosphate (GTP), pH 6.9, plus 5% glycerol in the absence or presence of the compound 13 at 4° C. The sample mixture was transferred to the prewarmed 96-well plate and absorbance was detected each minute for 30 minutes at 340 nm at 37° C.

The test system of series [2] is LNCaP and PC-3 cells. As to the kind of experiment: DNA fragmentation by agarose gel electrophoresis. Format: cell-based, human. As for the experimental part:
LNCaP and PC-3 cells were treated with different concentrations of drugs for different periods of time. At the end of the incubation, both floating and adherent cells were collected. […] DNA was visualized by ethidium bromide staining and UV transillumination.

For series [3], the system named is LNCaP and PC-3 cells. As to the kind of experiment: Anti-histone ELISA for apoptosis. Format: cell-based, human. The following applies: 100 nM; LNCaP 24 h, PC-3 48 h. On the procedure:
(§1) Cell viability (LNCaP, PC-3 prostate, DU145, PPC-1, and TSU-Pr1 prostate cancer cell lines, HT-29 colon cancer cell line, and MCF-7 breast cancer cell line) was quantitated using the sulforhodamine B (SRB) assay after 96 h coincubation with different concentrations of compound in 96-well plates. Cell viability of leukemia cells (K562 and doxorubicin-resistant K562/Dox) was quantitated by MTT assay after 96 h coincubation with different concentrations of compound in 96-well plates. Drug-induced apoptosis was determined by anti-histone ELISA assay and DNA laddering. Cell cycle progression was assessed by propidium iodide staining and fluorescence-activated cell sorting (FACS) analysis. In vitro tubulin polymerization assay was determined by CytoDYNAMIX ScreenTM3 (CDS-03) kits according to the manufacturer's instructions. Anti-apoptosis protein (Bcl-2 and Bcl-xl) and pro-apoptosis protein (Bax) were examined in LNCaP and PC-3 after 24 h incubation with different concentrations of compound 13 by Western blot assay. In vivo PC-3 xenograft studies were conducted by i.v. dosing of 50 mg/kg, 100 mg/kg and 150 mg/kg for 2 weeks.
(§2) 100 nM of compound 13 was incubated with LNCaP for 24 h and PC-3 for 48 h. […] The results are expressed as enrichment factor (Enrichment factor=OD of treated cells/OD from control cells). […]

The test system of another series is Bcl-2. Nature of the series: Western blot of anti- and pro-apoptosis proteins. Format: cell-based, human. The following applies: LNCaP and PC-3, increasing concentration, 24 h. On the procedure: as §1, §2
For the next series, the system named is HEK293-pcDNA3-10. As to the kind of experiment: Growth inhibition assay (96 h). The following applies: Homo sapiens, HEK293-pcDNA3-10 (control for BCRP). Format: cell-based, human. From the text:
(§3) MTT (3-(4,5-dimethylthiazol-2-yl)-2,5-diphenyltetrazolium bromide) assay was also used for the leukemia cell lines. […] Cells were stained with SRB solution or MTT solution.

The subject of a further series is LNCaP. Nature of the series: Growth inhibition assay (SRB, 96 h). The series is classed as cell-based. Particulars: Homo sapiens.
Excerpt: as §3

The next series has as its system PPC-1. Nature of the series: Growth inhibition assay (SRB, 96 h). The series is classed as cell-based. The following applies: Homo sapiens, PPC-1, 96 h.
Excerpt: as §3

The next series relates to DU-145. As to the kind of experiment: Growth inhibition assay (SRB, 96 h). The series is classed as cell-based. The following applies: Homo sapiens, DU-145, 96 h.
Excerpt: as §3

The test system of the next series is MES-SA. Nature of the series: Growth inhibition assay (96 h). The series is classed as cell-based. Particulars: Homo sapiens, MES-SA (parental).
Excerpt: as §3

A further series deals with PC-3 cells. As to the kind of experiment: Indirect immunofluorescence microscopy of microtubules. Format: cell-based, human. Particulars: 24 h, anti-α-tubulin-FITC. On the procedure:
PC-3 cells were plated on poly-D-lysine coated glass cover slips in 6-well plates (5×10^4 cells/well) the day before treatment. After cells were incubated with cytotoxic agents at 37° C. for 24 h, cells were fixed on the cover slips with 4% formaldehyde in PBS for 10 min and permeabilized by 2% Triton-X in PBS for 5 min at rt. Fixed cells were blocked with 3% bovine serum albumin in TBST for 30 min and incubated with anti-α-tubulin-FITC antibody (1:100 dilution) at 4° C. overnight. Cover slips were mounted on slides using mounting medium with 4′,6-diamidino-2-phenylindole (DAPI), followed by microscopic analysis with a Zeiss Axioplan 2 fluorescent microscope (Carl Zeiss, Thornwood, N.Y.). Images were acquired with a Zeiss Axiocam HRc, using Zeiss AxioVision.

Turning to `O=C(c1cccc(-c2cc3ccccc3[nH]2)c1)c1cc2ccccc2[nH]1` [Compound 13, (1H-indol-2-yl)-[3-(1H-indol-2-yl)phenyl]methanone], the tolerability entry in series [1] (50, 100 and 200 mg/kg S.C., 4 weeks, 5-days on/2 days off) is given as “generally well tolerated”. Moreover, in series [1] (50 or 100 mg/kg S.C., 4 weeks), the “morbidity or rate of gain in body weight vs control” value is “no significant difference”. For the same molecule, the “less body weight gain as compared to control animals” value in series [1] (highest dose (200 mg/kg) S.C., 4-week treatment) is given as 20%. In addition, in the series on Tubulin proteins, the “effect on tubulin polymerization” value is “completely block”. The DNA fragmentation result in the series with LNCaP and PC-3 cells [2] is on record as “induced DNA fragmentation”. For the same molecule, the “apoptosis by anti-histone ELISA” value with LNCaP and PC-3 cells [3] is reported as “detected apoptosis”. In addition, in the series with Bcl-2, the “Bcl-2 level by Western blot” value is reported as “decreased”.

As for `COc1cc(C(=O)c2cccc(-c3cc4ccccc4[nH]3)c2)cc(OC)c1OC` [Compound 68, [3-(1H-Indol-2-yl)-phenyl]-(3,4,5-trimethoxy-phenyl)-methanone], the IC50 in the series on HEK293-pcDNA3-10 is 13.5 ± 1.6 nM; in the series with LNCaP, 30.9 ± 3.5 nM; in the series with PPC-1 it was 18.7 ± 1.5 nM; with DU-145, 22.8 ± 4.1 nM; in the series on MES-SA it was 31.5 ± 2.9 nM.

Take `CC[C@]1(O)C[C@@H]2CN(CCc3c([nH]c4ccccc34)[C@@](C(=O)OC)(c3cc4c(cc3OC)N(C)[C@H]3[C@@](O)(C(=O)OC)[C@H](OC(C)=O)[C@]5(CC)C=CCN6CC[C@]43[C@@H]65)C2)C1` [Vinblastine]: the “microtubule changes by immunofluorescence” value with PC-3 cells is recorded as “short microtubules”.

For the origin of these results see patent US20120022121A1, “INDOLES, DERIVATIVES AND ANALOGS THEREOF AND USES THEREFOR” (priority 2007, published 2012).
